System: human osteoblast precursor cells
Assay: Cell proliferation rate under the influence of growth factors, using bromodeoxyuridine incorporation (BrdU incorporation)
Type: cell-based
Conditions: 54 h incubation + 18 h BrdU labelling, OD at 405 nm
Method: 3,000 osteoblastic cells from fractions t1 to 2 up to the second passage, recovered from osteoporotic patients (OP cells), per well of a 96-well microwell plate were incubated in the presence of 10% FCS and 10% inactivated human control serum in a cell culture medium (α-MEM and HAM-S F12 medium […]) for 48 h, 120 h and 192 h. In parallel, 3,000 osteoblastic cells from non-osteoporotic patients were incubated under the same conditions. The number of intact cells was determined by means of trypan blue staining and counting in a counting chamber. 4. Determination of the cell proliferation rate under the influence of the three growth factors 1, 2 and 3 using bromodeoxyuridine incorporation (BrdU incorporation) Growth factor 1 =TGF-β2
Cells from fraction 1 and/or 2 of each punched-out bone piece up to the 2nd passage were used in the proliferation test.
3 ×10^3 cells from the first and/or second passage per well of a 96-well plate and 200 μl of medium were used.
The cells were cultivated for three days under the conditions previously described and subsequently cultivated further for one day in medium with no serum until subconfluence was reached.
Thereafter, the three growth factors 1, 2 and 3 were added to the cells at four different final concentrations (100, 10, 1, and 0.1 ng/ml medium).
Cells in a medium containing 10% FKS and in a medium containing 5% Ultroser served as controls.
Triplets were set up for all concentrations and controls.
Six wells including cells, to which no bromodeoxyuridine had been added during the proliferation test served as blank controls.
After 54 hours of incubation with the growth factors, the proliferation test (5-Bromo-2′-deoxyuridine Labeling and Detection Kit III by Boehringer Mannheim) was initiated by adding 20 μl of labelling solution diluted 1:90 in 1% BSA medium and subsequent incubation for 18 hours.
The proliferation test was conducted according to the manufacturer's instructions.
Evaluation of the proliferation test was effected by measuring the optical density (OD) at 405 nm in an ELISA reader. After 60 minutes of color development, the absorbance was measured 12 times at intervals of 5 minutes.

Substance | Absorbance mean value (0.1 ng/ml medium) | Absorbance mean value (1 ng/ml medium) | Absorbance mean value (10 ng/ml medium) | Absorbance mean value (100 ng/ml medium)
IGF I: protein growth factor 2 (insulin-like growth factor I) | 0.151 | 0.148 | 0.140 | 0.140
IGF II: protein growth factor 3 (insulin-like growth factor II) | 0.148 | 0.150 | 0.139 | 0.140

Source: patent US6713269B2, “Methods for identifying potential therapeutic agents for treatment of osteoporosis using mitogenic indices” (co.don Aktiengesellschaft, priority 1995, dated 2004)
